Key:
Autotaxin (Mus musculus) = Autotaxin (Mus musculus) (UniProt Q9R1E6)
Autotaxin = Autotaxin (Mus musculus, UniProt Q9R1E6); experiment: Inhibition of mouse ATX using TG-mTMP as substrate after 2 hrs by fluorometric analysis

Row | SMILES | IC50 (Autotaxin (Mus musculus)) | IC50 (Autotaxin)
1 | Oc1ccc2nonc2c1 | 200 µM | 
2 | OB(O)c1ccc(Cl)cc1 | 3.16 µM | 
3 | O=C(O)c1ccc2cc[nH]c2c1 | 794 µM | 
4 | CS(=O)(=O)c1ccc(O)cc1 | 631 µM | 
5 | OB(O)c1ccc(O)cc1 | 10 µM | 
6 | NCc1cccc(O)c1 | 1260 µM | 
7 | COc1cccc(B(O)O)c1 | 20 µM | 
8 | CS(=O)(=O)c1ccc(B(O)O)cc1 | 5.01 µM | 
9 | OB(O)c1ccccc1CCN1CCN(c2nc(O)c(Cc3ccc(Cl)c(Cl)c3)s2)CC1 |  | 0.631 µM
10 | COCCc1ccc(OCc2cccc(B(O)O)c2)cc1 | 0.501 µM | 
11 | OB(O)c1ccccc1OCc1cccc(Cl)c1 | 1 µM | 
12 | N#CCc1cccc(B(O)O)c1 | 5.01 µM | 
13 | COc1ccc(B(O)O)cc1 | 5.01 µM | 
14 | N#Cc1cccc(B(O)O)c1 | 20 µM | 
15 | Oc1ccc(-n2ccnc2)cc1 | 501 µM | 
16 | OCc1cccc(B(O)O)c1 | 12.6 µM | 
17 | OB(O)c1cccc(CCN2CCN(c3nc(O)c(Cc4ccc(Cl)c(Cl)c4)s3)CC2)c1 |  | 0.0126 µM
18 | N#C/C=C/c1cccc(B(O)O)c1 | 1.58 µM | 
19 | OB(O)c1ccccc1 [PHENYLBORONIC ACID] | 10 µM | 
20 | OB(O)c1cccc(O)c1 | 10 µM | 
21 | N#Cc1ccc(B(O)O)cc1 | 5.01 µM | 
22 | Nc1cccc(-c2nnc[nH]2)c1 | 251 µM | 
23 | OB(O)c1ccc2nonc2c1 | 10 µM | 
24 | COc1cc(COc2ccc(B(O)O)cc2Cl)cc(OC)c1 | 0.316 µM | 
25 | OB(O)c1ccc(CCCN2CCC(c3nc(O)c(Cc4ccc(Cl)c(Cl)c4)s3)CC2)cc1 |  | 0.02 µM
26 | COc1ccccc1B(O)O | 3.98 µM | 
27 | OB(O)c1ccc2cc[nH]c2c1 | 2 µM | 
